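96-well plates; 48 h exposure; 5 concentrations. Endpoints by linear interpolation between flanking doses. Not reached: highest tested concentration assigned. GI50: concentration for 50% inhibition of growth. TGI: total growth inhibition.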
Tests used:
Test in all cases: growth of human tumour cells (NCI), 48 h
DU-145 prostate = system: DU-145 prostate
BT-549 breast = system: BT-549 breast
HCC-2998 colon = system: HCC-2998 colon
SF-268 CNS = system: SF-268 CNS
A498 renal = system: A498 renal
SK-MEL-2 melanoma = system: SK-MEL-2 melanoma
EKVX NSCLC = system: EKVX NSCLC
HOP-92 NSCLC = system: HOP-92 NSCLC
UACC-257 melanoma = system: UACC-257 melanoma
MALME-3M melanoma = system: MALME-3M melanoma
MDA-MB-435 = system: MDA-MB-435

Compound: C[C@H]1[C@H]2[C@H]3CC[C@@H]4[C@@]5(C)CC[C@H](O)C(C)(C)[C@@H]5CC[C@@]4(C)[C@]3(C)C[C@H](O)[C@@]2(C)C[C@H]2O[C@]21C
- TGI (DU-145 prostate): 31.5 µM
- TGI (BT-549 breast): 41.5 µM
- TGI (HCC-2998 colon): 37.4 µM
- TGI (SF-268 CNS): 36.7 µM
- TGI (A498 renal): 38.7 µM
- TGI (SK-MEL-2 melanoma): 41.2 µM
- TGI (EKVX NSCLC): 73.9 µM
- TGI (HOP-92 NSCLC): 56.2 µM
- TGI (UACC-257 melanoma): 39.4 µM
- TGI (MALME-3M melanoma): 39.6 µM
- TGI (MDA-MB-435): 46 µM

Compound: NS(=O)(=O)c1ccc(/C=C/c2ccc(O)c(O)c2)cc1
- TGI (DU-145 prostate): > 100 µM
- GI50 (BT-549 breast): 4.13 µM
- TGI (BT-549 breast): 27.1 µM
- TGI (HCC-2998 colon): 41.7 µM
- GI50 (SF-268 CNS): 18.2 µM
- TGI (SF-268 CNS): 47.3 µM
- TGI (A498 renal): > 100 µM
- TGI (SK-MEL-2 melanoma): 62.8 µM
- TGI (EKVX NSCLC): 64 µM
- GI50 (HOP-92 NSCLC): 15.8 µM
- TGI (HOP-92 NSCLC): 47.9 µM
- TGI (UACC-257 melanoma): > 100 µM
- TGI (MALME-3M melanoma): > 100 µM
- GI50 (MDA-MB-435): 16.8 µM
- TGI (MDA-MB-435): 51.5 µM

Compound: COC(=O)C1=C(OC(=O)/C(=C/c2ccc(Cl)cc2)c2ccc(Cl)cc2)C(C(=O)OC)[C@@]2(O)[C@@H](C(=O)OC)[C@H](C)C[C@@H]1[C@@H]2C(=O)OC (stereo partly specified)
- TGI (DU-145 prostate): > 100 µM
- TGI (BT-549 breast): > 100 µM
- TGI (HCC-2998 colon): > 100 µM
- TGI (SF-268 CNS): > 100 µM
- TGI (A498 renal): > 100 µM
- TGI (SK-MEL-2 melanoma): > 100 µM
- TGI (EKVX NSCLC): > 100 µM
- TGI (HOP-92 NSCLC): > 86.9 µM
- TGI (UACC-257 melanoma): > 100 µM
- TGI (MALME-3M melanoma): > 100 µM
- TGI (MDA-MB-435): > 100 µM

Compound: CCOC(=O)CCC(NC(=O)Cc1ccc(Nc2nc3cc(F)c(F)cc3nc2C(=O)OCC)cc1)C(=O)OCC (stereo unspecified)
- TGI (DU-145 prostate): > 100 µM
- TGI (BT-549 breast): > 100 µM
- TGI (HCC-2998 colon): > 100 µM
- TGI (SF-268 CNS): > 100 µM
- TGI (A498 renal): > 100 µM
- TGI (SK-MEL-2 melanoma): 60.4 µM
- TGI (EKVX NSCLC): > 100 µM
- TGI (HOP-92 NSCLC): 82.1 µM
- TGI (UACC-257 melanoma): > 100 µM
- TGI (MALME-3M melanoma): > 100 µM
- TGI (MDA-MB-435): > 100 µM

Compound: BrC1=C(Br)C2(SCCS2)[C@H]2C[C@@H]1c1ccccc12
- TGI (DU-145 prostate): > 100 µM
- TGI (BT-549 breast): > 100 µM
- TGI (HCC-2998 colon): > 89.6 µM
- TGI (SF-268 CNS): > 100 µM
- TGI (A498 renal): > 100 µM
- TGI (SK-MEL-2 melanoma): > 100 µM
- TGI (EKVX NSCLC): > 100 µM
- TGI (HOP-92 NSCLC): > 100 µM
- TGI (UACC-257 melanoma): > 100 µM
- TGI (MALME-3M melanoma): > 100 µM
- TGI (MDA-MB-435): > 100 µM

Compound: COC(=O)C1=C(C(=O)OC)N(c2ccc(OC)cc2[N+](=O)[O-])C(c2ccc(C)cc2)=CC1c1ccc(OC)cc1OC (stereo unspecified)
- TGI (DU-145 prostate): > 100 µM
- TGI (BT-549 breast): > 100 µM
- TGI (HCC-2998 colon): 30.6 µM
- TGI (SF-268 CNS): > 100 µM
- TGI (A498 renal): 46.3 µM
- TGI (SK-MEL-2 melanoma): > 80.4 µM
- TGI (EKVX NSCLC): > 100 µM
- TGI (HOP-92 NSCLC): > 100 µM
- TGI (UACC-257 melanoma): > 100 µM
- TGI (MALME-3M melanoma): > 77.4 µM
- TGI (MDA-MB-435): > 100 µM

Compound: COc1cc(Nc2nc3ccccc3nc2C(=O)O)cc(OC)c1OC
- TGI (DU-145 prostate): > 100 µM
- TGI (BT-549 breast): > 100 µM
- TGI (HCC-2998 colon): > 100 µM
- TGI (SF-268 CNS): > 100 µM
- TGI (A498 renal): 82.5 µM
- TGI (EKVX NSCLC): > 100 µM
- TGI (HOP-92 NSCLC): 92.7 µM
- TGI (UACC-257 melanoma): > 100 µM
- TGI (MALME-3M melanoma): > 100 µM
- TGI (MDA-MB-435): > 100 µM

Compound: CO/N=C(\C)c1ccc(Nc2nc3ccccc3c3occc23)cc1
- TGI (DU-145 prostate): 29.7 µM
- TGI (BT-549 breast): 31 µM
- TGI (HCC-2998 colon): 30.4 µM
- TGI (SF-268 CNS): 32.5 µM
- TGI (A498 renal): 29.7 µM
- TGI (SK-MEL-2 melanoma): 33.4 µM
- TGI (EKVX NSCLC): 27.5 µM
- TGI (HOP-92 NSCLC): 27.6 µM
- TGI (UACC-257 melanoma): 31.4 µM
- TGI (MALME-3M melanoma): 28.3 µM
- TGI (MDA-MB-435): 31.1 µM

Compound: CN1C(=O)c2ccccc2OC12C=Cc1c(ccc3ccccc13)O2 (stereo unspecified)
- TGI (DU-145 prostate): > 45 µM
- TGI (BT-549 breast): > 56.6 µM
- TGI (HCC-2998 colon): 16 µM
- TGI (SF-268 CNS): 31.4 µM
- TGI (A498 renal): 44.9 µM
- TGI (SK-MEL-2 melanoma): 22 µM
- TGI (EKVX NSCLC): 10.7 µM
- TGI (HOP-92 NSCLC): 8.47 µM
- TGI (UACC-257 melanoma): 36.3 µM
- TGI (MALME-3M melanoma): 15.6 µM
- TGI (MDA-MB-435): > 24.5 µM

Compound: N#CC1C(=S)NC(c2ccccc2)=CC12CCCCC2 (stereo unspecified)
- TGI (DU-145 prostate): 61.5 µM
- TGI (BT-549 breast): 35.7 µM
- TGI (HCC-2998 colon): > 100 µM
- TGI (SF-268 CNS): > 100 µM
- TGI (A498 renal): 50.3 µM
- TGI (SK-MEL-2 melanoma): 55.8 µM
- TGI (EKVX NSCLC): 44.6 µM
- TGI (HOP-92 NSCLC): 55.3 µM
- TGI (UACC-257 melanoma): > 100 µM
- TGI (MALME-3M melanoma): 43.2 µM
- TGI (MDA-MB-435): 40.3 µM

Compound: C=CCc1cccc2cc(C(=O)NCc3ccccc3)c(=N)oc12
- TGI (DU-145 prostate): > 100 µM
- TGI (BT-549 breast): > 100 µM
- TGI (HCC-2998 colon): 67.8 µM
- TGI (SF-268 CNS): > 100 µM
- TGI (A498 renal): 86.8 µM
- TGI (SK-MEL-2 melanoma): 31.5 µM
- TGI (EKVX NSCLC): > 100 µM
- TGI (HOP-92 NSCLC): > 100 µM
- TGI (UACC-257 melanoma): > 100 µM
- TGI (MALME-3M melanoma): 40.4 µM
- TGI (MDA-MB-435): > 100 µM

Compound: COC(=O)c1ccc(/C=C/c2cc(O)ccc2O)cc1
- TGI (DU-145 prostate): > 100 µM
- TGI (BT-549 breast): 3.49 µM
- TGI (HCC-2998 colon): > 59.6 µM
- TGI (SF-268 CNS): 8.41 µM
- TGI (A498 renal): 33 µM
- TGI (SK-MEL-2 melanoma): > 31.6 µM
- TGI (EKVX NSCLC): 9.66 µM
- TGI (HOP-92 NSCLC): 7.69 µM
- TGI (UACC-257 melanoma): 22.5 µM
- TGI (MALME-3M melanoma): 5.64 µM
- TGI (MDA-MB-435): 13.5 µM

Compound: O=c1[nH]nnc2c1sc1ncccc12
- TGI (DU-145 prostate): > 100 µM
- TGI (BT-549 breast): > 100 µM
- TGI (HCC-2998 colon): > 100 µM
- TGI (SF-268 CNS): > 100 µM
- TGI (A498 renal): > 100 µM
- TGI (SK-MEL-2 melanoma): > 100 µM
- TGI (EKVX NSCLC): > 100 µM
- TGI (HOP-92 NSCLC): > 100 µM
- TGI (UACC-257 melanoma): > 100 µM
- TGI (MALME-3M melanoma): > 100 µM
- TGI (MDA-MB-435): > 100 µM

Compound: C=CCn1c(N)c(C#N)c(C#N)c1-c1ccccc1
- TGI (DU-145 prostate): > 100 µM
- TGI (BT-549 breast): > 100 µM
- TGI (HCC-2998 colon): > 100 µM
- TGI (SF-268 CNS): > 100 µM
- TGI (A498 renal): > 100 µM
- TGI (SK-MEL-2 melanoma): > 100 µM
- TGI (EKVX NSCLC): > 100 µM
- TGI (HOP-92 NSCLC): > 100 µM
- TGI (UACC-257 melanoma): > 100 µM
- TGI (MALME-3M melanoma): > 100 µM
- TGI (MDA-MB-435): > 100 µM

Compound: O=C1C=CC(=O)c2c1ccc1c3ccccc3n(CCCCCn3c4ccccc4c4ccc5c(c43)C(=O)C=CC5=O)c21
- TGI (DU-145 prostate): > 100 µM
- TGI (BT-549 breast): 82 µM
- TGI (HCC-2998 colon): > 80.8 µM
- TGI (SF-268 CNS): 32.7 µM
- TGI (A498 renal): > 95.7 µM
- TGI (SK-MEL-2 melanoma): 44.8 µM
- TGI (EKVX NSCLC): > 94.3 µM
- TGI (HOP-92 NSCLC): 35.6 µM
- TGI (UACC-257 melanoma): 39.5 µM
- TGI (MALME-3M melanoma): 31.9 µM
- TGI (MDA-MB-435): 46.3 µM

Compound: Cc1[nH]c(=O)nc2nc3ccc(Cl)cc3c(NCCNCCO)c12
- TGI (DU-145 prostate): 29.4 µM
- TGI (BT-549 breast): 30.5 µM
- TGI (HCC-2998 colon): 26.5 µM
- TGI (SF-268 CNS): 27.9 µM
- TGI (A498 renal): 34.6 µM
- TGI (SK-MEL-2 melanoma): 28.3 µM
- TGI (EKVX NSCLC): 23.8 µM
- TGI (HOP-92 NSCLC): 24.2 µM
- TGI (UACC-257 melanoma): 25 µM
- TGI (MALME-3M melanoma): 28.5 µM
- TGI (MDA-MB-435): 25.7 µM

Compound: COc1cc(OC)cc(Oc2nc3ccccc3nc2C(F)(F)F)c1
- TGI (DU-145 prostate): > 100 µM
- TGI (BT-549 breast): > 100 µM
- TGI (HCC-2998 colon): > 100 µM
- TGI (SF-268 CNS): > 100 µM
- TGI (A498 renal): 73.9 µM
- TGI (SK-MEL-2 melanoma): > 100 µM
- TGI (EKVX NSCLC): > 100 µM
- TGI (HOP-92 NSCLC): > 100 µM
- TGI (UACC-257 melanoma): > 100 µM
- TGI (MALME-3M melanoma): > 100 µM
- TGI (MDA-MB-435): > 100 µM

Compound: Cc1c(C)c2c(c(N)c1C#N)C(=O)N(NC(=O)c1ccccc1)C2=O
- TGI (DU-145 prostate): > 100 µM
- TGI (BT-549 breast): > 100 µM
- TGI (HCC-2998 colon): > 100 µM
- TGI (SF-268 CNS): > 100 µM
- TGI (A498 renal): > 100 µM
- TGI (SK-MEL-2 melanoma): > 100 µM
- TGI (EKVX NSCLC): > 100 µM
- TGI (HOP-92 NSCLC): > 100 µM
- TGI (UACC-257 melanoma): > 100 µM
- TGI (MALME-3M melanoma): > 100 µM
- TGI (MDA-MB-435): > 100 µM
